Results taken from patent US20060041016A1, “Composition and method for the treatment of psoriasis” (priority 2004, published 2006).

Legend:
eye = details: tested in the form of an isopropyl ester prodrug; cited from earlier work
[1] = system: Normal human epithelial keratinocytes; test: Antiproliferative effect on cultured keratinocytes, crystal violet method, absorbance at 595 nm; assay type: cell-based; details: for antiproliferative potency relative to PGA2 and the other analogues: normal human epithelial keratinocytes, 7 days incubation, FIG. 1-4
Procedure: Normal human epithelial keratinocytes, and keratinocyte growth medium (KGM^R-2 Bulletkit; CC-3107 from Clonetics, USA) were purchased from Göteborgs Termometerfabrik AB (Västra Frölunda, Sweden). The cells were cultured at 37° C. in 5% CO2 humidified air according to standard procedure. The cells used for the experiments were at the third passage. 48-well plates were used for the cultures. In each well about 3000 cells were seeded. For each concentration of prostaglandin analogues two wells were used. After completion of the incubation, the wells were washed twice with phosphate buffered saline (PBS). Thereafter the cells were fixed with 1% glutaraldehyde in PBS at +4° C. for 15 min. The wells were then again washed twice with PBS, and thereafter treated with 0.1% crystal violet solution (500 μl/well). The wells were then rinsed with distilled water for 15 sec, three times, and were left to dry completely. The absorbed colour was solubilized in 500 μl 2.5% sodiumdodecyl-sulphate (SDS) in distilled water for 3 hours. The absorbance of the fluid in the wells was determined using a microtiter well spectrophotometer (Multiscan RC V1.3-0) at 595 nm. The experiments were performed in duplicate (two wells). The incubation time was 7 days, and the incubation medium was changed after 3-4 days. The prostaglandin analogues were dissolved directly in the incubation medium. After appropriate incubation the density of cells in the wells was determined using the crystal violet method described above.

[2] = system: BAX gene expression (BAX-protein) in human keratinocytes; test: Expression of the pro-apoptotic BAX gene by immunocytochemistry; assay type: cell-based
Procedure: The cells, cultivated essentially as described above, were trypsinized, the solution centrifuged, and the pellet resuspended and transferred to a microscopic slide with cover slip. Immunocytochemistry was performed according to standard technique. BAX (N-20)-affinity purified rabbit polyclonal antibodies were purchased from Santa Cruz Biotechnology Inc. (Santa Cruz, Calif.), and used at a dilution of 1:200. Secondary goat-antirabbit antibodies conjugated to horseradish peroxidase (Dako Envision+TM) obtained from Dako (Carpinteria, Calif., USA) were used for detecting the primary antibodies. After appropriate rinsing the preparations were incubated with […] as chromogenic substrate for the horseradish peroxidase for 10 min at room temperature. […] The preparations were finally examined in a Nikon FTX fluorescence microscope equipped with camera, and colour photographs were taken of representative cells.
In another set of experiments, intravital staining for detection of apoptosis/necrosis in keratinocytes cultivated as above in the absence and presence of BR280 (17-phenyl-18,19,20-trinor-PGA2) was performed with propidium-iodide/Hoechst 33342 (bisbenzimide) purchased from Sigma Chemical Company (St. Louis, Mo.). […] The cells were examined in a Nikon FTX fluorescence microscope equipped with a UV-2A filter and camera. […]

human keratinocytes = test: Intravital staining with propidium-iodide/Hoechst 33342 for apoptosis/necrosis; assay type: cell-based; details: keratinocytes exposed for 7 days
Procedure: In another set of experiments, intravital staining for detection of apoptosis/necrosis in keratinocytes cultivated as above in the absence and presence of BR280 (17-phenyl-18,19,20-trinor-PGA2) was performed with propidium-iodide/Hoechst 33342 (bisbenzimide) purchased from Sigma Chemical Company (St. Louis, Mo.). A mixture of propidium-iodide (10 μg/ml) and Hoechst 33342 (5 μg/ml) was added to the culture medium. The cells were incubated in the medium for 10 min at 37° C. The medium was harvested for free floating cells while the attached cells were washed once with Ca^++/Mg^++ free Hanks solution (Sigma Chemical Company), or PBS. Thereafter 1.5 ml of a 0.5% trypsin/EDTA solution (Ca^++/Mg^++ free Hanks solution, or PBS) was added and incubation was carried out for 5 min at 37° C. The solution was then centrifuged for 1 min (500 g). The pellet was resuspended in 0.5 ml PBS, and the solution was centrifuged as above. The pellet was then suspended in 20 μl PBS, and the solution containing the cells was placed on a microscopic slide with cover slip. The cells were examined in a Nikon FTX fluorescence microscope equipped with a UV-2A filter and camera. Colour photographs were taken of representative cells. The prostaglandin analogue (BR280) was diluted directly in the culture medium. […]

human eye = test: Hyperemia/irritation test using the human eye as a model; assay type: in vivo; details: for hyperemia and ocular irritation or pain after application (in words): human eye, topical, 3 individuals, about 10^−4 M and about 3×10^−4 M; for Difference in irritation PGA2 - JB991 acid / Difference in hyperemia PGA2 - JB991 acid: topical on eye, n = 3; for Difference in irritation PGA2 - JB991 acid: categorical scale, Mean ± SEM; for Difference in hyperemia PGA2 - JB991 acid: scale 0-3, Mean ± SEM
Procedure: PGA2 and 17-phenyl-18,19,20-trinor-PGA2, synthesized as described above, were formulated in vehicles suitable for hyperemia/irritation tests using the human eye as a model. The superficial redness of the eyes was documented by colour photographs before, and 15, 30, 60 and 120 min after application of the test substances. One eye was treated with the prostaglandin analogue and the other eye with the vehicle only. Ocular irritation or pain was recorded at the same time points. The two test substances at a concentration of 26 μg/ml (about 10^−4 M) were tested in the same eye of three healthy individuals a few days apart.
About a week later, a higher concentration of each compound, 84 μg/ml of PGA2 and 96 μg/ml of 17-phenyl-18,19,20-trinor-PGA2 (both concentrations corresponding to about 3×10^−4 M) was again tested a few days apart in the same eyes of the same individuals. The concentrations used are relevant since for the treatment of psoriasis the drugs have to be used at approximately this concentration range. The hyperemia was evaluated on a scale from 0 (no hyperemia) to 3 (maximum hyperemia) using half steps. A similar categorical scale was used for the ocular irritation or pain. […]

[3] = Dose 2 (84 μg/ml; JB991 acid 96 μg/ml), 0 min
[4] = Dose 2 (84 μg/ml; JB991 acid 96 μg/ml), 15 min
[5] = Dose 2 (84 μg/ml; JB991 acid 96 μg/ml), 30 min
[6] = Dose 2 (84 μg/ml; JB991 acid 96 μg/ml), 60 min
[7] = Dose 2 (84 μg/ml; JB991 acid 96 μg/ml), 120 min

For O=C(O)CCC/C=C\CC1C(=O)C=CC1CCC(O)CCc1ccccc1 (stereo not drawn), the “hyperemia in the eye” value (eye) is listed as “caused some hyperemia in the eye”.

With O=C(O)CCC/C=C\CC1C(=O)C=CC1/C=C/C(O)COc1cccc(C(F)(F)F)c1 (stereo not drawn) [BR277, 16-phenoxy-(3-trifluormethyl)-17,18,19,20-tetranor-PGA2] the “antiproliferative potency relative to PGA2 and the other analogues” value [1] was “next most potent of the PGA2 analogues”.

For O=C(O)CCC/C=C\CC1C(=O)C=CC1CCC(O)CCc1ccccc1 (stereo not drawn) [BR278, 13,14-dihydro-17-phenyl-18,19,20-trinor-PGA2], the “antiproliferative potency relative to PGA2 and the other analogues” value [1] was “lowest potency”.

With O=C(O)CCC/C=C\CC1C(=O)C=CC1/C=C/C(O)CCc1ccccc1 (stereo not drawn) [BR280, 17-phenyl-18,19,20-trinor-PGA2] the “BAX gene expression (BAX-protein) immunostaining” value ([2]; human keratinocytes exposed at different concentrations, 2 days incubation) was “could be demonstrated”, the “BAX gene expression effect at low concentrations” value ([2]; lower concentrations than 10^−5 M) was “weak or absent” and the “signs of apoptosis by intravital staining” value (human keratinocytes) was “Markedly condensed and fragmented nuclei and apoptotic bodies could be demonstrated”. The “antiproliferative potency relative to PGA2 and the other analogues” value [1] was “even more potent than PGA2” and the “hyperemia and ocular irritation or pain after application (in words)” value (human eye) was “no hyperemic effect or irritative effect whatsoever”.

For CCCCC[C@H](O)/C=C/[C@H]1C=CC(=O)[C@@H]1C/C=C\CCCC(=O)O [PGA2, prostaglandin A2], the complete cell death ([1]; highest concentration tested) was “Neither PGA2 nor any of the analogues tested were able to cause complete cell death”, the “Difference in irritation PGA2 - JB991 acid” value (“Difference in irritation PGA2” for short) (human eye; Dose 1 (26 μg/ml), 0 min) was 0.00 ± 0.00 and the “Difference in hyperemia PGA2 - JB991 acid” value (from here on “Difference in hyperemia PGA2”) (human eye; Dose 1 (26 μg/ml), 0 min) was 0.00 ± 0.00. The “Difference in irritation PGA2” value (human eye; Dose 1 (26 μg/ml), 15 min) was 1.00 ± 0.29, the “Difference in hyperemia PGA2” value (human eye; Dose 1 (26 μg/ml), 15 min) was 1.33 ± 0.60 and the “Difference in irritation PGA2” value (human eye; Dose 1 (26 μg/ml), 30 min) was 1.17 ± 0.33. For the same compound, the “Difference in hyperemia PGA2” value (human eye; Dose 1 (26 μg/ml), 30 min) was 1.17 ± 0.44, the “Difference in irritation PGA2” value (human eye; Dose 1 (26 μg/ml), 60 min) was 0.50 ± 0.29 and the “Difference in hyperemia PGA2” value (human eye; Dose 1 (26 μg/ml), 60 min) was 0.67 ± 0.44. The “Difference in irritation PGA2” value (human eye; Dose 1 (26 μg/ml), 120 min) was 0.17 ± 0.17, the “Difference in hyperemia PGA2” value (human eye; Dose 1 (26 μg/ml), 120 min) was 0.17 ± 0.17 and the “Difference in irritation PGA2” value (human eye; [3]) was 0.00 ± 0.00. For the same compound, the “Difference in hyperemia PGA2” value (human eye; [3]) was 0.00 ± 0.00, the “Difference in irritation PGA2” value (human eye; [4]) was 1.83 ± 0.44 *) and the “Difference in hyperemia PGA2” value (human eye; [4]) was 2.17 ± 0.44 **). For the same compound, the “Difference in irritation PGA2” value (human eye; [5]) was 1.33 ± 0.60, the “Difference in hyperemia PGA2” value (human eye; [5]) was 2.17 ± 0.44 **) and the “Difference in irritation PGA2” value (human eye; [6]) was 0.83 ± 0.44. The “Difference in hyperemia PGA2” value (human eye; [6]) was 1.33 ± 0.60, the “Difference in irritation PGA2” value (human eye; [7]) was 0.33 ± 0.17 and the “Difference in hyperemia PGA2” value (human eye; [7]) was 0.50 ± 0.29. The “hyperemia and ocular irritation or pain after application (in words)” value (human eye) was “causes both these disadvantageous side-effects”.
